Experimental data published in ChEMBL document CHEMBL1155650, “New oleanene triterpenoid saponins from Madhuca longifolia” (J Nat Prod, 2000).
Calls of active or inactive are those of the source. The rule behind the calls is not given here.

Species: Homo sapiens
Assay: Cytotoxicity against human Kato 3 cells
Format: functional, cell-based

In the case of `CC1(C)CC[C@]2(C(=O)O[C@@H]3OC[C@H](O)[C@H](O)[C@H]3O)CC[C@]3(C)C(=CC[C@@H]4[C@@]5(C)C[C@H](O)[C@H](O)[C@@](C)(CO)[C@@H]5[C@H](O)C[C@]43C)[C@@H]2C1`, the Activity was “inactive”.
For `C[C@@H]1O[C@@H](O[C@H]2[C@H](OC(=O)[C@]34CCC(C)(C)C[C@H]3C3=CC[C@@H]5[C@@]6(C)C[C@H](O)[C@H](O)[C@@](C)(CO)[C@@H]6[C@H](O)C[C@@]5(C)[C@]3(C)CC4)OC[C@H](O)[C@@H]2O)[C@H](O)[C@H](O)[C@H]1O`, the Activity was “inactive”.
For `CC1(C)CC[C@]2(C(=O)O[C@@H]3OC[C@H](O)[C@H](O)[C@H]3O)CC[C@]3(C)C(=CC[C@@H]4[C@@]5(C)CC(=O)[C@H](O)[C@@](C)(CO)[C@@H]5[C@H](O)C[C@]43C)[C@@H]2C1`, the Activity was “inactive”.
`CC1(C)CC[C@]2(C(=O)O[C@@H]3OC[C@H](O)[C@H](O)[C@H]3O)CC[C@]3(C)C(=CC[C@@H]4[C@@]5(C)CC(=O)[C@H](O[C@@H]6O[C@H](CO)[C@@H](O)[C@H](O)[C@H]6O)[C@@](C)(CO)[C@@H]5[C@H](O)C[C@]43C)[C@@H]2C1` was tested, and the Activity was “inactive”.
